According to PubChem BioAssay (NCI):
Several values for one entry are separate records, joined by “and”; a condition that tells them apart may be missing. Identical values can stand only once.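 Tested at 5 concentrations; 48 h exposure; 96-well plates; endpoints linearly interpolated, else capped at highest concentration. GI50 = concentration required for 50% inhibition of growth. TGI denotes the concentration required for complete inhibition of growth.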

Key:
Test in all cases: inhibition of tumour cell growth, NCI panel, 48 h
[1] = system: SN12C renal
[2] = system: IGROV1 ovarian
[3] = system: COLO 205 colon
[4] = system: 786-0 renal
[5] = system: OVCAR-8 ovarian
[6] = system: SNB-19 CNS
[7] = system: U251 CNS
[8] = system: K-562 leukemia
[9] = system: SK-MEL-5 melanoma
[10] = system: NCI-H23 lung

SMILES	GI50 [1]	TGI [1]	GI50 [2]	TGI [2]	GI50 [3]	TGI [3]	GI50 [4]	TGI [4]	GI50 [5]	TGI [5]	GI50 [6]	TGI [6]	GI50 [7]	TGI [7]	GI50 [8]	TGI [8]	GI50 [9]	TGI [9]	GI50 [10]	TGI [10]
Cc1cnc(C(=O)Nc2nc3ccc(S(=O)(=O)Nc4ccc(C(C)(C)C)cc4)cc3[nH]2)cn1	0.592 µM	13.3 µM	0.776 µM	12.3 µM	0.503 µM	7.74 µM	0.552 µM	13.7 µM	1.26 µM	17.2 µM	0.591 µM	13.7 µM	0.648 µM	9.99 µM	0.314 µM	5.71 µM	0.33 µM	7.09 µM	0.606 µM	12.7 µM
CNC(=O)c1sc(-n2cnc3cc(OC)c(OC)cc32)cc1OCc1ccccc1C(F)(F)F	> 25 µM	> 25 µM	> 25 µM	> 25 µM	> 25 µM	> 25 µM	> 25 µM	> 25 µM	> 19.2 µM	> 25 µM	> 23.6 µM	> 25 µM	> 25 µM	> 25 µM	> 25 µM	> 25 µM	> 25 µM	> 25 µM	> 25 µM	> 25 µM
N#Cc1ccc2c(-c3ccnc(NC4CC4)n3)c(-c3ccc(F)cc3)nn2c1	> 25 µM	> 25 µM	> 25 µM	> 25 µM	> 25 µM	> 25 µM	> 25 µM	> 25 µM	> 25 µM	> 25 µM	> 25 µM	> 25 µM	> 25 µM	> 25 µM	> 25 µM	> 25 µM	> 25 µM	> 25 µM	> 25 µM	> 25 µM
CC1=C(C(=S)Nc2ccc(Cl)c(C(=O)OC(C)C)c2)SCCO1	–	32.9 µM	–	33.1 µM	–	37.4 µM	–	30.2 µM	–	46.5 µM	–	44.5 µM	–	36.2 µM	–	43.6 µM	–	30.8 µM	–	62.2 µM
CCCCCn1sc(=O)n(Cc2ccc(CNC(=O)C(C)c3ccc(CC(C)C)cc3)cc2)c1=O (stereo unspecified)	1.1 µM	2.37 µM	0.645 µM	2 µM	0.598 µM	2.08 µM	0.747 µM	2.06 µM	1.09 µM	2.73 µM	1.55 µM	2.91 µM	1.56 µM	3.04 µM	0.602 µM	> 61.1 µM	1.61 µM	2.96 µM	1.45 µM	2.96 µM
O=C(CC1(O)C(=O)Nc2ccc(Cl)cc21)c1ccc(C(=O)NCC2CCC3(CC2)OOC2(CCCCC2)OO3)cc1 (stereo unspecified)	3.45 µM	18.4 µM	0.482 µM	2.89 µM	3.09 µM	12.3 µM	0.535 µM	1.86 µM	2.68 µM	11.6 µM	4.19 µM	23.6 µM	1.64 µM	3.39 µM	1.89 µM	4.48 µM	1.75 µM	3.4 µM	1.72 µM	21.3 µM
C=C1C(C)C2C(Cc3ccccc3)NC(=O)C23C(OC(C)=O)C=CC(C)(O)C(=O)C(C)C/C=C/C3C1O (stereo unspecified)	14.9 µM	499 µM	0.79 µM	–	0.0825 µM	> 500 µM	2.05 µM	56.2 µM and > 120 µM	> 471 µM	> 500 µM	0.474 µM	–	–	5.47 µM and 53.2 µM	13.6 µM	> 500 µM	2.17 µM	–	15.6 µM	82.2 µM and 259 µM
CCOC(=O)C(Oc1ccc(OC)c2c1C(=O)CCC2)c1ccccc1 (stereo unspecified)	–	> 100 µM	–	> 100 µM	–	> 100 µM	–	> 100 µM	–	> 100 µM	–	> 100 µM	–	> 100 µM	–	> 100 µM	–	> 100 µM	–	> 100 µM
CN(C(=O)C12C3C4C1C1C2C3C41C#N)C(C)(C)C (stereo unspecified)	–	> 100 µM	–	> 100 µM	–	> 100 µM	–	> 100 µM	–	> 100 µM	–	> 100 µM	–	> 100 µM	–	> 100 µM	–	> 100 µM	–	> 100 µM
CC1=C(\C=C/C(C)=C/C=C/C(C)=C/C=C/C=C(C)\C=C\C=C(C)/C=C/C2=C(C)CCCC2(C)C)C(C)(C)CCC1	–	> 100 µM	–	> 100 µM	–	> 100 µM	–	> 100 µM	–	> 100 µM	–	> 100 µM	–	> 100 µM	–	> 100 µM	–	> 100 µM	–	> 100 µM
CSc1ccc(-c2cn3ccsc3n2)cc1	32.2 µM	> 100 µM	5.73 µM	> 75.5 µM	14.4 µM	> 100 µM	32.3 µM	> 100 µM	15.8 µM	> 100 µM	43.5 µM	> 100 µM	7.65 µM	> 100 µM	4.85 µM	> 100 µM	14.3 µM	98.1 µM	19.3 µM	> 100 µM
COc1ccc(/C(=C(\c2ccccc2)[N+](=O)[O-])c2ccc(OCCN3CCCC3)cc2)cc1	7.79 µM	22.4 µM	3.57 µM	17.3 µM	1.46 µM	3.14 µM	1.64 µM	3.27 µM	11.8 µM	31.7 µM	5.61 µM	18.6 µM	2.84 µM	12.6 µM	1.1 µM	6.14 µM	1.54 µM	2.92 µM	4.94 µM	18.6 µM
